These results are taken from patent publication US20240351994A1, “MAXI-K POTASSIUM CHANNEL OPENERS FOR THE TREATMENT OF FRAGILE X ASSOCIATED DISORDERS” (Kaerus Bioscience Limited, priority 2020, published 2024).

For data set [1] the following is noted: single intraperitoneal (IP) injection of 2 mg/kg; cited from earlier work.
Data set [2] concerns the target T1, BK channels (HEK-293 cell line expressing functional alpha subunits of BK channels) (Homo sapiens, UniProt Q12791).
T1 construct: expressed in transfected cells; host or cells: HEK-293 (stably transfected; geneticin and blasticidin selection)
Kind of data set: Whole-cell patch clamp assay of BK channel stimulatory activity. It is filed as cell-based. To be noted: 3 μM, percentage of control, stably transfected HEK-293 cells. The method, then: HEK-293 cell line expressing functional alpha subunits of BK channels were passaged at a confluence of 50 to 80%. Cells were seeded into 35 mm sterile culture dishes containing 2 mL culture complete medium. Cells were cultivated at a density that enables single cells (without visible connections to neighbouring cells) to be measured.
Cells were incubated at 37° C. in a humidified atmosphere with 5% CO2 (relative humidity about 95%). […]
The 35 mm culture dishes upon which cells were seeded at a density allowing single cells to be recorded were placed on the dish holder of the microscope and continuously perfused (at approximately 1 mL/min) with the bath solution described. […]
Values (in pA/nA) of the current amplitudes were generated for each voltage step. The recorded current amplitudes at the steady state level of current modulation (+50 mV) were compared to those from control conditions measured in the pre-treatment phase of the same cell with SigmaPlot. The amount of current modulation was calculated as percentage of control. Data from at least 2 individual experiments were collected and the corresponding mean values and standard errors calculated.
For orientation: In patch-clamp work, channel activity is measured electrically.

The test system of a further data set is plasma proteins. The note with it: cited from earlier work.

T1 sequence (Q12791 whole entry): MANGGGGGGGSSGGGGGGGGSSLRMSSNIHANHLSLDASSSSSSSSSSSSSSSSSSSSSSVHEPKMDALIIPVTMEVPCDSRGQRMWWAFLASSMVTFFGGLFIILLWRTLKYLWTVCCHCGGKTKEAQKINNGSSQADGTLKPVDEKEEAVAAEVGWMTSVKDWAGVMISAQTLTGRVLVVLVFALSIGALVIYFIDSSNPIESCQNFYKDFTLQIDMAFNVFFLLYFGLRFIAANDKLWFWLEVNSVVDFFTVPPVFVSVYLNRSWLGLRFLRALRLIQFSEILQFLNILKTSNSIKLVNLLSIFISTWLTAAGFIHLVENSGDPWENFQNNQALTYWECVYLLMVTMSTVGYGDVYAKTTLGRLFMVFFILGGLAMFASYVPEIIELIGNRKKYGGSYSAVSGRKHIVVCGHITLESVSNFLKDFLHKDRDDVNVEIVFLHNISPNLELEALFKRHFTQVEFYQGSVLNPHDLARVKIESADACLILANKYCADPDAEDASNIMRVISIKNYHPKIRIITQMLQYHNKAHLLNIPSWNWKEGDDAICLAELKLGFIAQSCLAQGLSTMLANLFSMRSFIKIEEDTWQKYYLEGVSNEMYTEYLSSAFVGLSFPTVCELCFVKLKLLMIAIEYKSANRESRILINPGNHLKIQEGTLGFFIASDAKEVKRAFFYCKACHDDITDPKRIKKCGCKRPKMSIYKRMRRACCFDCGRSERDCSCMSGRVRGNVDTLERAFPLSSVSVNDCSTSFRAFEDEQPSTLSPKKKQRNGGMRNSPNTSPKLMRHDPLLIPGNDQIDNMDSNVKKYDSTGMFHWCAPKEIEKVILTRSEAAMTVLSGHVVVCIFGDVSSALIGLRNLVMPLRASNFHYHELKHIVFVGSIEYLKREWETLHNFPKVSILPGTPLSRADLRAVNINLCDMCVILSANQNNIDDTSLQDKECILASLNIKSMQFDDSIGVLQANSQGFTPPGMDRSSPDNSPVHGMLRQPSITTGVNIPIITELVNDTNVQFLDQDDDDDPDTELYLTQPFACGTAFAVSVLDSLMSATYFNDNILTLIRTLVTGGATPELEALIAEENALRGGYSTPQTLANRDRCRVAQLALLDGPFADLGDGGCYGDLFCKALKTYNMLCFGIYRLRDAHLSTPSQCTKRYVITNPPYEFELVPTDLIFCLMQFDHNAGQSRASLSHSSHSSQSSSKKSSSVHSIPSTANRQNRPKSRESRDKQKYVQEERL

Turning to `COc1ccc(Cl)cc1[C@]1(F)C(=O)Nc2cc(C(F)(F)F)ccc21` [BMS-204352, (3S)-(+)-(5-chloro-2-methoxyphenyl)-1,3-dihydro-3-fluoro-6-(trifluoromethyl)-2H-indol-2-one], the Cmax entry in data set [1] is reported as “about 130 ng/mL”. For the same molecule, in data set [2], the “Mean stimulation of BK channel activity at +50 mV” value is given as 216.59%. Further, the “Covalent binding of metabolic degradation product to plasma proteins” value with plasma proteins is on record as “gives rise to a metabolic degradation product that covalently binds to plasma proteins”.
Take `COc1ccc(Cl)cc1C1(C)C(=O)Nc2cc(C(F)(F)F)ccc21` (stereo not shown) [Example 1, 3-(5-chloro-2-methoxyphenyl)-3-methyl-6-(trifluoromethyl)indolin-2-one]: in data set [2], the “Mean stimulation of BK channel activity at +50 mV” value was found to be 204.09%.
